As a reminder, the IC50 is the concentration that gives 50% inhibition. Low values mean greater potency in that assay, high ones weaker potency in that assay.

Values joined by “and” are separate entries in the source; they are usually repeats but may differ in a detail not shown here. Equal entries are not always repeated.

One test addresses Syk kinase (Homo sapiens, UniProt P43405). As to the kind of experiment: SYK Enzymatic Assay (Z-LYTE Tyr 2 peptide). Format: biochemical. The following applies: 8 concentrations 1 μM down to 0.0003 μM. The gist of the method: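 Z-LYTE format using Tyr 2 peptide. After the 1 h room-temperature kinase reaction, development reagent was added for 1 h, then stop reagent. Fluorescence was read at 445 and 520 nm. Compounds were tested at 8 concentrations, 1 μM down to 0.0003 μM (1:3 dilutions).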

For the next test, the target named is T1, Flt-3 (Homo sapiens, UniProt P36888).
T1 sequence (P36888 27-993): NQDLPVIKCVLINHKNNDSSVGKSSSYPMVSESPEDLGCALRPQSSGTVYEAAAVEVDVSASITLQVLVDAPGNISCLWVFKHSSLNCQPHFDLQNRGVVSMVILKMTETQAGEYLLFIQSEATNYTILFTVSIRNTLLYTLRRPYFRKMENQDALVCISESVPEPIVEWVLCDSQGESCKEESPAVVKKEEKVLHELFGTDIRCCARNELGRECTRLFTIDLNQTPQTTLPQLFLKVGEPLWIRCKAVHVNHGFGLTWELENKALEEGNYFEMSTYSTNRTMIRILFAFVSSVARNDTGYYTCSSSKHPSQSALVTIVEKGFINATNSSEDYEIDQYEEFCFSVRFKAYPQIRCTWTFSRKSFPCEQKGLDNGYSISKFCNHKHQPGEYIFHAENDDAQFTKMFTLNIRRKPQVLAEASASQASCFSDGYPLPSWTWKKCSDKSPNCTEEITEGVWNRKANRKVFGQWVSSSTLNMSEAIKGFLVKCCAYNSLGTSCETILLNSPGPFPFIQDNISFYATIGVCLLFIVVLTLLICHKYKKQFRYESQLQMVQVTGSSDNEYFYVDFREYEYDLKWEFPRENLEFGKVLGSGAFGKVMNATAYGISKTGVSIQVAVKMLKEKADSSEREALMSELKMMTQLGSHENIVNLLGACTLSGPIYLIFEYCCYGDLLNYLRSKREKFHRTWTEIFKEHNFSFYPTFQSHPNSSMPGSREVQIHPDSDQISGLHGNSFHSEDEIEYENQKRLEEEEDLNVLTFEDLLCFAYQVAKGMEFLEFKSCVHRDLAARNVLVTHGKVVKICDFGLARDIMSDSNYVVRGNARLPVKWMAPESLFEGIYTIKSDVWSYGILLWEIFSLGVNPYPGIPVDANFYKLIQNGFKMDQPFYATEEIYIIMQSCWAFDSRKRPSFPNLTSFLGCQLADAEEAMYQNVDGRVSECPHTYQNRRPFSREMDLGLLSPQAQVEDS
Description: Z-Lyte Kinase Assay of Flt-3. Type of test: biochemical. The conditions noted are these: Flt3 kinase. Here is the method: Z-Lyte Kinase Assay of Flt-3:
Serially dilute the test compounds to 4 folds of the concentrations desired, keeping the DMSO concentration at 8%. The final concentrations were 3, 1, 0.33, 0.11, 0.037, 0.012, 0.004, 0.0014 μM, and the final concentration of DMSO was 2%.
Prepare Kinase/Peptide Mixture by diluting the kinase to 0.12 μg/mL and the Z-LYTE™ Tyr 2 peptide to 4 μM in 1.33× Kinase Buffer. Mix gently by pipetting.
Prepare ATP Solution by diluting the 10 mM of ATP in 1.33× Kinase Buffer to 1.88 mM.
• a. Add 2.5 μL of 4× test Cpds to each well except C1, C2, C3 wells • Add 2.5 μL of 8% DMSO to C1, C2, C3 wells • b. Put the 384-plate on ice • c. Add 5 μL of P/K mixture to each test Cpd wells and C1, C2 wells • d. Add 5 μL of PP Solution to C3 well • e. Add 2.5 μL of 1.33× kinase buffer to C1 and C3 wells • f. Add 2.5 μL of 4×ATP Solution to each test Cpd wells and C2 well, respectively. • Shake the plate for 30 Sec and centrifuge (1500 rpm, 1 min) • g. Seal the plate to protect from the light and incubate the plate for 1 hour at RT (25-30° C.).
• a. Add 5 μL of the Development solution to all wells • b. Shake the plate for 30 Sec and centrifuge (1500 rpm, 1 min) • c. Seal the plate to protect from the light and incubate the plate for 1 hour at RT (25-30° C.).
• a. […]
IC50 Value: determined with add-in software for Microsoft Excel, XLfit™ (version 2.0) from ID Business Solutions (Guildford, UK)

For the compound `CC(=O)N1CCO[C@H](COc2nc(-c3ccc4c(c3)CCOC4(C)C)cc3nccnc23)C1` [Compound 300], the 50% inhibitory concentration (IC50) at Syk kinase came out at 0.03 µM; at Flt-3, 0.885 µM.
In the case of `CC(C)(O)c1ccc(-c2cc3nccnc3c(OC[C@@H]3CN(S(C)(=O)=O)CCO3)n2)cc1` [Compound 219], the IC50 against Syk kinase was 0.032 µM and 0.028 µM; at Flt-3, 0.88 µM.

The record behind these values is patent US20170152258A9, “Substituted Pyridopyrazines as Syk Inhibitors” (HUTCHISON MEDIPHARMA LIMITED, priority 2012, published 2017).
